Assay results as given in patent US9045445B2, “Glycine transporter-1 inhibitors, methods of making them, and uses thereof” (Albany Molecular Research, Inc., priority 2010, dated 2015).
Structures can show the parent of a compound that is named as a salt. Where two headings read alike, the source gives them in different places.

Assays:
[1] = target: T1, glycine transporter-2 (GlyT-2) (Homo sapiens, UniProt Q9Y345); assay: [14C]glycine uptake assay in HEK-GlyT-2 transfected cells; type: cell-based; conditions: HEK-GlyT-2 cells
T1 construct: expressed in transfected cells
T1 sequence (Q9Y345 1-797): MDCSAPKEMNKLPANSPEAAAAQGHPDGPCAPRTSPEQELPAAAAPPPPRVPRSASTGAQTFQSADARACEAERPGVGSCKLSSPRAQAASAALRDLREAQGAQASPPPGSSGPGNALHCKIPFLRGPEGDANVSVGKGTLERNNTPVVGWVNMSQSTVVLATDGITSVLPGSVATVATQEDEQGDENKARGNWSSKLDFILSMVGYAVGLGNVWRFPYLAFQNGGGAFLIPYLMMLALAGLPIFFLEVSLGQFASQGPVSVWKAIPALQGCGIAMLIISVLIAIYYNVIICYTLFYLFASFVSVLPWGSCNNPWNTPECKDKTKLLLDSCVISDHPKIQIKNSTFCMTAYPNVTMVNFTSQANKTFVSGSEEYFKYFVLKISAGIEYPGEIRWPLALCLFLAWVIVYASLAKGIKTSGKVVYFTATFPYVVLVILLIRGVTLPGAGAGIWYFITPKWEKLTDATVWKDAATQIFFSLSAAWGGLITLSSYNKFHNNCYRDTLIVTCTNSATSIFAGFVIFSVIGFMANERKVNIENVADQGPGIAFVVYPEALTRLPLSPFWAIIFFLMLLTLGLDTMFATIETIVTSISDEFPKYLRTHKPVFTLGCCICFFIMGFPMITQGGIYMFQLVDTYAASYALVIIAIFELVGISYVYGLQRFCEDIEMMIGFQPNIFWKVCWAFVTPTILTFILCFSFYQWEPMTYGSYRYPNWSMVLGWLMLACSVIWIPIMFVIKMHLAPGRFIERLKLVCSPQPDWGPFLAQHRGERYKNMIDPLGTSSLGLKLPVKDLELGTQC

[2] = target: T2, glycine transporter-1 (GlyT-1) (Homo sapiens, UniProt P48067); assay: [14C]glycine uptake assay in JAR cells endogenously expressing GlyT-1 (scintillation proximity); type: cell-based
T2 construct: JAR cells (ATCC#HTB-144), which endogenously express GlyT-1; host or cells: JAR human choriocarcinoma cells
T2 sequence (P48067 1-706): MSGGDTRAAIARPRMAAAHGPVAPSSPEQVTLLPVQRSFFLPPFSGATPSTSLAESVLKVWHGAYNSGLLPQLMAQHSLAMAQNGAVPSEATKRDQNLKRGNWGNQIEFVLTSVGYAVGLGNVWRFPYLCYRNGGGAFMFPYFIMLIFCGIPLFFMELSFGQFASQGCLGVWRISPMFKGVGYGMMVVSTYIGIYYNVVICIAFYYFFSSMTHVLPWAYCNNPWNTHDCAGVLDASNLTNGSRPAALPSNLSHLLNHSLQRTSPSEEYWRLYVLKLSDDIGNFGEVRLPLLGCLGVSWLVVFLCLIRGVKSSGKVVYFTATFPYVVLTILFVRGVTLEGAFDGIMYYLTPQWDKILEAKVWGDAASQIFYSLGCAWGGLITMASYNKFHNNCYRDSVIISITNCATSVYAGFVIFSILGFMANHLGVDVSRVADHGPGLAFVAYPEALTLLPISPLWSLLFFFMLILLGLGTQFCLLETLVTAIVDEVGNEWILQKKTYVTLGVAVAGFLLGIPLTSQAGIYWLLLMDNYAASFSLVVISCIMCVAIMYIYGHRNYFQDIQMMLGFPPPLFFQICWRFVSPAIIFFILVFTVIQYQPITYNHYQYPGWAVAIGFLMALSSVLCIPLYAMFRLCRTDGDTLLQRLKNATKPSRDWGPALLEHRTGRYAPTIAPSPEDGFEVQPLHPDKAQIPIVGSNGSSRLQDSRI
Outline: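 IC50 comes from a four-parameter fit of nine-point, duplicate curves measuring inhibition of 5 μM [14C]glycine uptake, read by scintillation proximity after 3 h at 37 °C. Cells are human JAR, which express GlyT-1 endogenously, given 10 min compound pre-treatment in pH 7.4 buffer with 5 mM alanine and 0.75% DMSO.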

[3] = JAR cells, [14C]glycine 5 μM, 3 hour incubation, read-out: GlyT-1 IC50

Compound	IC50 [1] [µM]	IC50 [2, 3] [nM]	IC50 ([2]; GlyT-1 IC50 (nM)) [nM]
2-Chloro-N-((4,4-difluoro- 1-(3-(propylsulfonyl)-3,8- diazabicyclo[3.2.1]octan- 8-yl)cyclohexyl)methyl)- 4-(trifluoromethyl) benzamide Hydrochloride [compound 261]	> 75	311	–
4-Chloro-N-((1-(4- (propylsulfonyl)piperazin- 1-yl)cycloheptyl)methyl) benzamide Hydrochloride [compound 58]	53	265	–
CC(NC(=O)c1ccc(C(F)(F)F)cc1Cl)C1(N2CCN(S(=O)(=O)c3cn(C)nn3)CC2)CCC(F)(F)CC1 (racemic) [compound 222, (±)-2-Chloro-N-(1-(4,4-difluoro-1-(4-(1-methyl-1H-1,2,3-triazol-4-ylsulfonyl)piperazin-1-yl)cyclohexyl)ethyl)-4-(trifluoromethyl) benzamide Hydrochloride]	> 75	1	–
CC1CN(C2(CNC(=O)c3ccc(C(F)(F)F)cc3Cl)CCC(F)(F)CC2)CCN1S(=O)(=O)c1cn(C)nn1 (racemic) [compound 227, (±)-2-Chloro-N-((4,4-difluoro-1-(3-methyl-4-(1-methyl-1H-1,2,3-triazol-4-ylsulfonyl)piperazin-1-yl)cyclohexyl)methyl)-4-(trifluoromethyl)benzamide Hydrochloride]	> 75	7	–
CCCS(=O)(=O)N1CCN(C2(CNC(=O)c3ccc(Cl)cc3Cl)CCCCC2)CC1 [compound 2, 2,4-Dichloro-N-((1-(4-(propylsulfonyl)piperazin-1-yl)cyclohexyl)methyl)benzamide Hydrochloride]	22.7	22	–
CCCS(=O)(=O)N1CCN(C2(CNC(=O)c3ccccc3OC(F)(F)F)CCCCC2)CC1 [compound 4, N-((1-(4-(Propylsulfonyl)piperazin-1-yl)cyclohexyl)methyl)-2-(trifluoromethoxy) benzamide Hydrochloride]	39.1	22	–
CCCS(=O)(=O)N1CCN(C2(CNC(=O)c3c(C(F)(F)F)ccc(Cl)c3F)CCCCC2)CC1 [compound 5, 3-Chloro-2-fluoro-N-((1-(4-(propylsulfonyl)piperazin-1-yl)cyclohexyl)methyl)-6-(trifluoromethyl)benzamide Hydrochloride]	≥ 75	43	–
CCCS(=O)(=O)N1CCN(C2(CNC(=O)c3ccc(OC(F)(F)F)cc3)CCCCC2)CC1 [compound 6, N-((1-(4-(Propylsulfonyl)piperazin-1-yl)cyclohexyl)methyl)-4-(trifluoromethoxy) benzamide Hydrochloride]	28.6	118	–
CCCS(=O)(=O)N1CCN(C2(CNC(=O)c3ccc(C(F)(F)F)cc3)CCCCC2)CC1 [compound 7, N-((1-(4-(Propyl-sulfonyl)piperazin-1-yl)cyclohexyl)methyl)-4-(trifluoromethyl) benzamide Hydrochloride]	> 30	126	–
CCCS(=O)(=O)N1CCN(C2(CNC(=O)c3ccccc3Cl)CCCCC2)CC1 [compound 8, 2-Chloro-N-((1-(4-(propylsulfonyl)piperazin-1-yl)cyclohexyl)methyl) benzamide Hydrochloride]	> 75	36	–
CCCS(=O)(=O)N1CCN(C2(CNC(=O)c3ccc(Cl)cc3C)CCCCC2)CC1 [compound 9, 4-Chloro-2-methyl-N-((1-(4-(propylsulfonyl)piperazin-1-yl)cyclohexyl)methyl) benzamide Hydrochloride]	> 75	22	–
CCCS(=O)(=O)N1CCN(C2(CNC(=O)c3ccc(Br)cc3)CCCCC2)CC1 [compound 11, 4-Bromo-N-((1-(4-(propylsulfonyl)piperazin-1-yl)cyclohexyl)methyl) benzamide Hydrochloride]	> 75	222	–
CCCS(=O)(=O)N1CCN(C2(CNC(=O)c3ccc(F)cc3Cl)CCCCC2)CC1 [compound 12, 2-Chloro-4-fluoro-N-((1-(4-(propylsulfonyl)piperazin-1-yl)cyclohexyl)methyl) benzamide Hydrochloride]	> 75	63	–
CCCS(=O)(=O)N1CCN(C2(CNC(=O)Cc3ccc(Cl)cc3)CCCCC2)CC1 [compound 13, 2-(4-Chlorophenyl)-N-((1-(4-(propylsulfonyl)piperazin-1-yl)cyclohexyl)methyl) acetamide Hydrochloride]	> 75	1270	–
CCCS(=O)(=O)N1CCN(C2(CNC(=O)c3ccc(F)cc3)CCCCC2)CC1 [compound 15, 4-Fluoro-N-((1-(4-(propylsulfonyl)piperazin-1-yl)cyclohexyl)methyl) benzamide Hydrochloride]	> 75	786	–
CCCS(=O)(=O)N1CCN(C2(CNC(=O)c3ccc(C#N)cc3)CCCCC2)CC1 [compound 17, 4-Cyano-N-((1-(4-(propylsulfonyl)piperazin-1-yl)cyclohexyl)methyl) benzamide Hydrochloride]	> 75	647	–
CCCS(=O)(=O)N1CCN(C2(CNC(=O)c3ccc(Br)cc3C)CCCCC2)CC1 [compound 18, 4-Bromo-2-methyl-N-((1-(4-(propylsulfonyl)piperazin-1-yl)cyclohexyl)methyl) benzamide Hydrochloride]	> 75	28	–
CCCS(=O)(=O)N1CCN(C2(CNC(=O)c3c(C)cc(F)cc3OC)CCCCC2)CC1 [compound 19, 4-Fluoro-2-methoxy-6-methyl-N-((1-(4-(propyl-sulfonyl)piperazin-1-yl)cyclohexyl)methyl) benzamide Hydrochloride]	39	15	–
CCCS(=O)(=O)N1CCN(C2(CNC(=O)c3c(OC)cc(F)cc3SC)CCCCC2)CC1 [compound 20, 4-Fluoro-2-methoxy-6-(methylthio)-N-((1-(4-(propylsulfonyl)piperazin-1-yl)cyclohexyl)methyl)benzamide Hydrochloride]	> 75	–	6
CCCS(=O)(=O)N1CCN(C2(CNC(=O)c3c(OC)cc(C(F)(F)F)cc3C(F)(F)F)CCCCC2)CC1 [compound 21, 2-Methoxy-N-((1(1-(4-(propylsulfonyl)piperazin-1-yl)cyclohexyl)methyl)-4,6-bis(trifluoromethyl)benzamide Hydrochloride]	39	4	–
CCCS(=O)(=O)N1CCN(C2(CNC(=O)c3cccc(C(F)(F)F)c3Cl)CCCCC2)CC1 [compound 22, 2-Chloro-N-((1-(4-(propylsulfonyl)piperazin-1-yl)cyclohexyl)methyl)-3-(trifluoromethyl) benzamide Hydrochloride]	41.3	–	77
CCCS(=O)(=O)N1CCN(C2(CNC(=O)c3ccc(OC)cc3)CCCCC2)CC1 [compound 23, 4-Methoxy-N-((1-(4-(propylsulfonyl)piperazin-1-yl)cyclohexyl)methyl) benzamide Hydrochloride]	61.9	1140	–
CCCS(=O)(=O)N1CCN(C2(CNC(=O)c3ccc(C)cc3)CCCCC2)CC1 [compound 25, 4-Methyl-N-((1-(4-(propylsulfonyl)piperazin-1-yl)cyclohexyl)methyl) benzamide Hydrochloride]	> 75	767	–
